The values below are quoted from earlier work in article PMC7153166 (Elektrophysiologie, 2018).

Holding throughout (format): cell-based
One series has as its target T1, P2X2-Rezeptor (Rattus norvegicus, UniProt P49653).
T1 sequence (P49653 1-472): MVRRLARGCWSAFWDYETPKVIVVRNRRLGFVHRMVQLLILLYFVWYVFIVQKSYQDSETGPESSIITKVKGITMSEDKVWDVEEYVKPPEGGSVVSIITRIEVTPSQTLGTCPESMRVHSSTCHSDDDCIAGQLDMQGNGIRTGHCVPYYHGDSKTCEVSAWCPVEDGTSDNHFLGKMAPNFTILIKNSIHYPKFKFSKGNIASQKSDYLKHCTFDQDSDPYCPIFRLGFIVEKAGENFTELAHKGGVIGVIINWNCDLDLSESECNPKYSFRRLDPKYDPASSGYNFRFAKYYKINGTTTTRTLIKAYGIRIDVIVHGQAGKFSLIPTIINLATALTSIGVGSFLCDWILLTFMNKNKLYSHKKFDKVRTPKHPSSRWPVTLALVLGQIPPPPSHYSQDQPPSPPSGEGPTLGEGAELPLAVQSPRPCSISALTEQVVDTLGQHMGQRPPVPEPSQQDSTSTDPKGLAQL
The series is described as follows: two-electrode voltage clamp, Xenopus oocytes. The settings on record: agonist. On the technique in general: In two-electrode clamp one electrode senses voltage and the other passes current.

For the next series, the target named is T2, P2X1-Rezeptor (Rattus norvegicus, UniProt P47824).
T2 sequence (P47824 1-399): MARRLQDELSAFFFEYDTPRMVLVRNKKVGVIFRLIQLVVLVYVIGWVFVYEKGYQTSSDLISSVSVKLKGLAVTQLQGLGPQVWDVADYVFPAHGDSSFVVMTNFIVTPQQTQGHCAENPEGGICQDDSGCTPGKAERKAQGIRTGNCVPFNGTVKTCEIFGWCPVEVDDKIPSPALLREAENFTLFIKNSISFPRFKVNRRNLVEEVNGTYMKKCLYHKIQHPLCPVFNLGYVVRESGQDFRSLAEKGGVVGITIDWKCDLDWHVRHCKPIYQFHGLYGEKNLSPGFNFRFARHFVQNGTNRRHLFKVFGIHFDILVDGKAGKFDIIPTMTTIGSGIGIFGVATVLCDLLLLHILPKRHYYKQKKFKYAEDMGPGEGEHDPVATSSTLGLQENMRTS
In words: two-electrode voltage clamp, Xenopus oocytes.

Another series addresses 3a-Protein (Severe acute respiratory syndrome-related coronavirus, UniProt P59632).

Sequence of 3a-Protein (P59632 whole entry, looked up): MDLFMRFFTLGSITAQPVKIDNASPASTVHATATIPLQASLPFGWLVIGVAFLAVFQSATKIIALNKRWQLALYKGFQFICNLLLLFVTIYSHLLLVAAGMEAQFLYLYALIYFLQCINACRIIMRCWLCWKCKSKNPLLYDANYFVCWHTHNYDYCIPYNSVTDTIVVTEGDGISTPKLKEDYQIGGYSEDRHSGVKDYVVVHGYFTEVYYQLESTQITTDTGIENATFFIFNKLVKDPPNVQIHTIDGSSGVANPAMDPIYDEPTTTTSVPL

Take `Nc1ncnc2c1ncn2[C@@H]1O[C@H](COP(=O)(O)OP(=O)(O)OP(=O)(O)O)[C@@H](O)[C@H]1O` [ATP]: the EC50 on P2X2-Rezeptor was about 30 µM; at P2X1-Rezeptor, 0.6 µM.
With `Cc1cc(O)c2c(c1)C(=O)c1cc(O)cc(O)c1C2=O` [Emodin, 1,3,8-Trihydroxcy-6-methylanthracen-9,10-dion], the IC50 on 3a-Protein is 20 µM.
Take `O=c1c(O[C@@H]2O[C@@H](CO)[C@H](O)[C@H]2O)c(-c2ccc(O)cc2)oc2cc(O)cc(O)c12` [Juglanin]: the concentration for half-maximal inhibition (IC50) on 3a-Protein was about 2 µM.

The term EC50 denotes the concentration giving half of the maximal effect. As usually defined, the IC50 is the concentration that inhibits the measured activity by half.
